We go through 1 compound from article PMC3591309, “Deoxyhypusine Hydroxylase from Plasmodium vivax, the Neglected Human Malaria Parasite: Molecular Cloning, Expression and Specific Inhibition by the 5-LOX Inhibitor Zileuton” (PLoS ONE, 2013).

The target in the test is T1, Deoxyhypusine hydroxylase (DOHH) (Plasmodium vivax, UniProt A5JZ19).
T1 construct: full-length ORF of 346 amino acids, histidine-tagged, expressed in E. coli BL21(DE3) (pET-28a)
T1 sequence (A5JZ19 1-346): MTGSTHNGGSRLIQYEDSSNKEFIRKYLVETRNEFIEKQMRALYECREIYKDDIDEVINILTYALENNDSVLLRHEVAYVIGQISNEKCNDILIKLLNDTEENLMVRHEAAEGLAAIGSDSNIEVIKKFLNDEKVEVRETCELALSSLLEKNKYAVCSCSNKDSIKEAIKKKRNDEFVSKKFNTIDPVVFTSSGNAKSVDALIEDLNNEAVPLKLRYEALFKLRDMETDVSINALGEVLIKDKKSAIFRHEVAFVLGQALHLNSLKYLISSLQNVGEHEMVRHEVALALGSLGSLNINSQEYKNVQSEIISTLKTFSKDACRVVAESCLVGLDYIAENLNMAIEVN
The experiment in a line: recombinant DOHH activity assay with eIF-5A(Dhp) substrate; radioactive filter assay and GC/MS, dose-response. The class given is biochemical.

`CC(c1cc2ccccc2s1)N(O)C(N)=O` (racemic) [zileuton, (RS)-1-(1-Benzothiophen-2-ylethyl)-1-hydroxyurea]: the IC50 is 12,5 nmol.
